Among the data in patent publication US10913738B2 (BRISTOL-MYERS SQUIBB COMPANY, priority 2017, dated 2021) are IC50 values, retold here.

Assay [1] concerns MLKL phosphorylation in HT29-L23 human colorectal adenocarcinoma cells. The assay is described as follows: MLKL Phosphorylation High-Content Assay. Conditions: Homo sapiens. The format is cell-based. Summed up:
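Cells incubated six hours at 37° C., then phospho-MLKL (S358) immunostained overnight at 4° C. and imaged by high-content microscopy. Phosphorylation quantified as mean circ-ring average intensity ratio; IC50 and Ymax from 4-parameter logistic fits.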

In assay [2] the target is T1, His-GST-TVMV-hRIPK1(1-324) (Homo sapiens, UniProt Q13546).
T1 construct: The coding region of human RIPK1(1-324) flanked by NdeI site at 5′ end; made in house; host or cells: Spodoptera frugiperda (Sf9) insect cells, baculovirus
T1 sequence (Q13546 1-324): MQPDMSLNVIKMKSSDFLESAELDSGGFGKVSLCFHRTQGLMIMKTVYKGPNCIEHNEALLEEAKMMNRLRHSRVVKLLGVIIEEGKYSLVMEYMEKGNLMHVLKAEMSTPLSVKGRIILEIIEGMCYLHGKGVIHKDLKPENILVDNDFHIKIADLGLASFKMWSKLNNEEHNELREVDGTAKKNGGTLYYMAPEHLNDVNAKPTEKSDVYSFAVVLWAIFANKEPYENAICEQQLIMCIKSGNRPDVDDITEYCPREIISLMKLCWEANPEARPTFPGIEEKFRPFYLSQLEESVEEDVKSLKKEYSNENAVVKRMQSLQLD
The assay is described as follows: RIPK1 HTRF Binding Assay. (In general: Time-resolved FRET reads energy transfer from a long-lived donor to a nearby acceptor.)

Setting [3] is: x marks IC50 class 20-200 nM, read-out: pMLKL cell activity 20-200 nM.
Where [4] appears, read: x marks IC50 class <20 nM, read-out: RIPK1 HTRF binding <20 nM.
[5] abbreviates: x marks IC50 class >200 nM, read-out: pMLKL cell activity >200 nM.
The mark [6] stands for this setting: x marks IC50 class 20-200 nM, read-out: RIPK1 HTRF binding 20-200 nM.
The mark [7] stands for this setting: x marks IC50 class <20 nM, read-out: pMLKL cell activity <20 nM.
[8] abbreviates: x marks IC50 class >200 nM, read-out: RIPK1 HTRF binding >200 nM.

pIC50: −log10 of the molar value. Like-named read-outs stand apart in the source and are kept apart here. Some results are limits rather than exact numbers.

`Nc1nc2cc(-c3cnc(N)c(C(=O)NCc4ccccc4OC4CCCC4)c3)ccn2n1` [Example 54, 2-Amino-5-{2-amino-[1,2,4]triazolo[1,5-a]pyridin-7-yl}-N-{[2-(cyclopentyloxy)phenyl]methyl}pyridine-3-carboxamide]: the pIC50 in assay [1] (setting [3]) was 6.70 to 7.70; in assay [2] (setting [4]) it was > 7.70.

With `CC(CCNC(=O)c1cncc(-c2ccn3nc(N)nc3c2)c1)c1ccccc1` (centres unmarked) [Example 73, 5-{2-Amino-[1,2,4]triazolo[1,5-a]pyridin-7-yl}-N-(3-phenylbutyl)pyridine-3-carboxamide], the results for the pIC50 in assay [1] (setting [5]) and in assay [2] (setting [4]) were < 6.70 and > 7.70, respectively.

Consider `COc1ncc(-c2ccn3nc(N)nc3c2)cc1C(=O)NCCC(O)c1ccc(F)c(F)c1` (centres unmarked) [Example 77, 5-{2-Amino-[1,2,4]triazolo[1,5-a]pyridin-7-yl}-N-[3-(3,4-difluorophenyl)-3-hydroxypropyl]-2-methoxypyridine-3-carboxamide], for which the pIC50 in assay [1] (setting [3]) and in assay [2] (setting [6]) was 6.70 to 7.70 throughout.

As for `COc1nc(C)c(-c2ccn3nc(N)nc3c2)cc1C(=O)NCc1cc(C(F)(F)F)cc(Cl)c1F` [Example 336, 5-(2-amino-[1,2,4]triazolo[1,5-a]pyridin-7-yl)-N-(3-chloro-2-fluoro-5-(trifluoromethyl)benzyl)-2-methoxy-6-methylnicotinamide], the pIC50 in assay [1] (setting [3]) and in assay [2] (setting [6]) was 6.70 to 7.70 throughout.

Consider `Cc1ncc(-c2ccn3nc(N)nc3c2)cc1C(=O)NCc1c(F)cccc1OCC1CC1` [Example 245, 5-{2-amino-[1,2,4]triazolo[1,5-a]pyridin-7-yl}-N-{[2-(cyclopropylmethoxy)-6-fluorophenyl]methyl}-2-methylpyridine-3-carboxamide], for which the pIC50 was 6.70 to 7.70 in assay [1] (setting [3]) and > 7.70 in assay [2] (setting [4]).

Regarding `COc1ncc(-c2ccn3nc(N)nc3c2)cc1C(=O)NCc1cc(F)ccc1OC1CCCC1` [Example 142, 5-{2-amino-[1,2,4]triazolo[1,5-a]pyridin-7-yl}-N-{[2-(cyclopentyloxy)-5-fluorophenyl]methyl}-2-methoxypyridine-3-carboxamide], the pIC50 in assay [1] (setting [7]) and in assay [2] (setting [4]) was > 7.70 in each case.

For `COc1ncc(-c2ccn3nc(N)nc3c2)cc1C(=O)NCc1cccc(F)c1CN1CCOCC1` [Example 365, 5-(2-amino-[1,2,4]triazolo[1,5-a]pyridin-7-yl)-N-(3-fluoro-2-(morpholinomethyl)benzyl)-2-methoxynicotinamide], the pIC50 in assay [1] (setting [5]) is < 6.70; in assay [2] (setting [6]), 6.70 to 7.70.

In the case of `Cc1ncc(-c2ccn3nc(N)nc3c2)cc1C(=O)NCc1cc(C(F)(F)F)ccc1Cl` [Example 254], the pIC50 in assay [1] (setting [3]) was 6.70 to 7.70; in assay [2] (setting [4]), > 7.70.

Turning to `COc1nc(C)c(-c2ccn3nc(N)nc3c2)cc1C(=O)NC(C)c1ccccc1OC(F)(F)F` (centres unmarked) [Example 205, 5-{2-amino-[1,2,4]triazolo[1,5-a]pyridin-7-yl}-2-methoxy-6-methyl-N-{1-[2-(trifluoromethoxy)phenyl]ethyl}pyridine-3-carboxamide], the pIC50 in assay [1] (setting [7]) and in assay [2] (setting [4]) was > 7.70 throughout.

`COc1nc(C)c(-c2ccn3nc(N)nc3c2)cc1C(=O)NCc1ccccc1OCC1CC(F)(F)C1` [Example 4, 5-{2-Amino-[1,2,4]triazolo[1,5-a]pyridin-7-yl}-N-({2-[(3,3-difluorocyclobutyl)methoxy]phenyl}methyl)-2-methoxy-6-methylpyridine-3-carboxamide]: the pIC50 in assay [1] (setting [3]) is 6.70 to 7.70; in assay [2] (setting [4]), > 7.70.

With `COc1ccc(-c2ccn3nc(N)nc3c2)nc1C(=O)N[C@H](C)c1cc(OC(F)(F)F)ccc1F` [Example 406, (R)-6-(2-amino-[1,2,4]triazolo[1,5-a]pyridin-7-yl)-N-(1-(2-fluoro-5-(trifluoromethoxy)phenyl)ethyl)-3-methoxypicolinamide], the values for the pIC50 in assay [1] (setting [5]) and in assay [2] (setting [6]) were < 6.70 and 6.70 to 7.70, respectively.

As to `[2H]C([2H])([2H])Oc1ncc(-c2ccn3nc(N)nc3c2)cc1C(=O)NCc1ccccc1OC(F)(F)F` [Example 90, 5-{2-amino-[1,2,4]triazolo[1,5-a]pyridin-7-yl}-2-(deutero)methoxy-N-{[2-(trifluoromethoxy)phenyl]methyl}pyridine-3-carboxamide], the pIC50 is 6.70 to 7.70 in assay [1] (setting [3]) and > 7.70 in assay [2] (setting [4]).

Turning to `Nc1nc2cc(-c3cncc(C(=O)NCc4ccccc4Sc4ccccc4CO)c3)ccn2n1` [Example 59, 5-{2-Amino-[1,2,4]triazolo[1,5-a]pyridin-7-yl}-N-{[(2-[2-(hydroxymethyl)phenyl]sulfanyl}phenyl)methyl]pyridine-3-carboxamide], the values for the pIC50 in assay [1] (setting [3]) and in assay [2] (setting [4]) were 6.70 to 7.70 and > 7.70, respectively.

For `[2H]C([2H])(Oc1c(F)cc(F)cc1CNC(=O)c1cc(-c2ccn3nc(N)nc3c2)c(C)nc1C)C1CC1` [Example 287, 5-(2-amino-[1,2,4]triazolo[1,5-a]pyridin-7-yl)-N-(2-(cyclopropylmethoxy-d2)-3,5-difluorobenzyl)-2,6-dimethylnicotinamide], the pIC50 in assay [1] (setting [7]) and in assay [2] (setting [4]) was > 7.70 in each case.

On to `Cc1ncc(-c2ccn3nc(N)nc3c2)cc1C(=O)NCc1ccccc1OCC(F)(F)F` [Example 312, 5-(2-amino-[1,2,4]triazolo[1,5-a]pyridin-7-yl)-2-methyl-N-(2-(2,2,2-trifluoroethoxy)benzyl)nicotinamide], for which the results for the pIC50 in assay [1] (setting [5]) and in assay [2] (setting [6]) were < 6.70 and 6.70 to 7.70, respectively.

For `Cc1ncc(C(=O)NCc2cc(F)ccc2OCC2CCCC2)cc1-c1ccn2nc(N)nc2c1` [Example 262, 5-{2-amino-[1,2,4]triazolo[1,5-a]pyridin-7-yl}-N-{[2-(cyclopentylmethoxy)-5-fluorophenyl]methyl}-6-methylpyridine-3-carboxamide], the figures for the pIC50 in assay [1] (setting [3]) and in assay [2] (setting [4]) were 6.70 to 7.70 and > 7.70, respectively.

As for `COc1ncc(-c2ccn3nc(N)nc3c2)cc1C(=O)NCc1cccc(F)c1OC1CCCC1` [Example 50, 5-{2-Amino-[1,2,4]triazolo[1,5-a]pyridin-7-yl}-N-{[2-(cyclopentyloxy)-3-fluorophenyl]methyl}-2-methoxypyridine-3-carboxamide], the pIC50 in assay [1] (setting [3]) is 6.70 to 7.70; in assay [2] (setting [4]), > 7.70.

For `Cc1ncc(-c2ccn3nc(N)nc3c2)cc1C(=O)NCc1ccccc1OCC1CCCC1` [Example 39, 5-{2-Amino-[1,2,4]triazolo[1,5-a]pyridin-7-yl}-N-{[2-(cyclopentylmethoxy)phenyl]methyl}-2-methylpyridine-3-carboxamide], the pIC50 in assay [1] (setting [3]) was 6.70 to 7.70; in assay [2] (setting [4]), > 7.70.

Take `Nc1nc2cc(-c3cc(C(=O)NCc4cc(F)ccc4OC(F)(F)F)cnc3Cl)ccn2n1` [Example 369, 5-(2-amino-[1,2,4]triazolo[1,5-a]pyridin-7-yl)-6-chloro-N-(5-fluoro-2-(trifluoromethoxy)benzyl)nicotinamide]: the pIC50 in assay [1] (setting [3]) was 6.70 to 7.70; in assay [2] (setting [4]), > 7.70.

As to `CCOc1ncc(-c2ccn3nc(N)nc3c2)cc1C(=O)Nc1cnn(Cc2ccccc2)c1` [Example 279, 5-{2-amino-[1,2,4]triazolo[1,5-a]pyridin-7-yl}-N-(1-benzyl-1H-pyrazol-4-yl)-2-ethoxypyridine-3-carboxamide], the pIC50 in assay [1] (setting [3]) and in assay [2] (setting [6]) was 6.70 to 7.70 in each case.

Regarding `COc1nc(C)c(-c2ccn3nc(N)nc3c2)cc1C(=O)NCc1ccccc1CN1CCCCC1` [Example 358, 5-(2-amino-[1,2,4]triazolo[1,5-a]pyridin-7-yl)-2-methoxy-6-methyl-N-(2-(piperidin-1-ylmethyl)benzyl)nicotinamide], the pIC50 is < 6.70 in assay [1] (setting [5]) and 6.70 to 7.70 in assay [2] (setting [6]).

In the case of `COc1ncc(-c2ccn3nc(N)nc3c2)cc1C(=O)NCc1ccccc1OC1CCCC1` [Example 148, 5-{2-amino-[1,2,4]triazolo[1,5-a]pyridin-7-yl}-N-{[2-(cyclopentyloxy)phenyl]methyl}-2-methoxypyridine-3-carboxamide], the pIC50 in assay [1] (setting [7]) and in assay [2] (setting [4]) was > 7.70 each time.

In the case of `COc1ncc(-c2ccn3nc(N)nc3c2)cc1C(=O)NC(C)c1cccc(OC(F)(F)F)c1` (single isomer, unassigned) [Example 36-2, 5-{2-Amino-[1,2,4]triazolo[1,5-a]pyridin-7-yl}-2-methoxy-N-{1-[3-(trifluoromethoxy)phenyl]ethyl}pyridine-3-carboxamide], the pIC50 in assay [1] (setting [5]) and in assay [2] (setting [8]) was < 6.70 in each case.

Take `[2H]C([2H])([2H])[C@H](NC(=O)c1cc(-c2ccn3nc(N)nc3c2)cnc1C)c1cc(OC(F)(F)F)ccc1F` [Example 300, (S)-5-(2-amino-[1,2,4]triazolo[1,5-a]pyridin-7-yl)-N-(1-(2-fluoro-5-(trifluoromethoxy)phenyl)ethyl-2,2,2-H3)-2-methylnicotinamide]: the pIC50 in assay [1] (setting [7]) and in assay [2] (setting [4]) was > 7.70 throughout.

As for `COc1cnc(-c2ccn3nc(N)nc3c2)cc1C(=O)NCc1cc(C(F)(F)F)ccc1F` [Example 391, 2-(2-amino-[1,2,4]triazolo[1,5-a]pyridin-7-yl)-N-(2-fluoro-5-(trifluoromethyl)benzyl)-5-methoxyisonicotinamide], the pIC50 in assay [1] (setting [5]) and in assay [2] (setting [8]) was < 6.70 in each case.
